# Assay results taken from article PMC7253177, “Gain of channel function and modified gating properties in TRPM3 mutants causing intellectual disability and epilepsy” (eLife, 2020).
# Target: T1, TRPM3 P1090Q mutant (Homo sapiens, UniProt Q9HCF6, P1115Q)
# T1 sequence (Q9HCF6 1-1325 isoform Q9HCF6-10 P1090Q): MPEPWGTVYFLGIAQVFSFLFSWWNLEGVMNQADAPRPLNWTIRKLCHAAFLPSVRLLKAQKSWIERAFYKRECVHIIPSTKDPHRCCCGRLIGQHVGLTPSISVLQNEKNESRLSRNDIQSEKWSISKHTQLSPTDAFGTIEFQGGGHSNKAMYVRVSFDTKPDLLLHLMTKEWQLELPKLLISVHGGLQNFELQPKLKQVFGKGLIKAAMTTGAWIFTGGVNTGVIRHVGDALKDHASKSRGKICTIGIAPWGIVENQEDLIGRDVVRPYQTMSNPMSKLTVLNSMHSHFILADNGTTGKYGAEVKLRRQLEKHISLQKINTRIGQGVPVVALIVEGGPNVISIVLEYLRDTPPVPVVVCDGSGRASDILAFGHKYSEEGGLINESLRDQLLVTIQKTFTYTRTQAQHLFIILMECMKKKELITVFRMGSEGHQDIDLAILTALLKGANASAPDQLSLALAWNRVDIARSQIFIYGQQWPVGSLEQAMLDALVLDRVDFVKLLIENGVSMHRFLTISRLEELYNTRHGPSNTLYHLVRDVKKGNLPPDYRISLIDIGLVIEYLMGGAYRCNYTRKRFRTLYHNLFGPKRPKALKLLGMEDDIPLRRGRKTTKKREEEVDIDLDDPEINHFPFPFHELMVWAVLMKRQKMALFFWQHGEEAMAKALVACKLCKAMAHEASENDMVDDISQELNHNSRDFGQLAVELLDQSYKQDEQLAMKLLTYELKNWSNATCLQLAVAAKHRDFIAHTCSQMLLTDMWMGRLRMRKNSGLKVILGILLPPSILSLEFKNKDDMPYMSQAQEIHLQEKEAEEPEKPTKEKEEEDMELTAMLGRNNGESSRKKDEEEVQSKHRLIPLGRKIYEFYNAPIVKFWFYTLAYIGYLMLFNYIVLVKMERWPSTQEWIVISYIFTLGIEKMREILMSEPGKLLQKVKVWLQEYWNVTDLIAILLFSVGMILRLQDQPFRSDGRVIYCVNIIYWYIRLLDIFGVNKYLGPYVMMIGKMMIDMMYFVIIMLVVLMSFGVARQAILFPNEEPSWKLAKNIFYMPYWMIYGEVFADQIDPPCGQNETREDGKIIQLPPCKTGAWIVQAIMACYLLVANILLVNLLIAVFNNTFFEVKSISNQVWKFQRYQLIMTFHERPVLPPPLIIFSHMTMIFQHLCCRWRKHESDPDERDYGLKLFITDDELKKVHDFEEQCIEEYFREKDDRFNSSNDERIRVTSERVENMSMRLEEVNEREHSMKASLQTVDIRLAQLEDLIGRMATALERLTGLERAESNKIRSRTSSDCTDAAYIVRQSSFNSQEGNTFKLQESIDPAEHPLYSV
# Assay: Fura-2-based calcium imaging, HEK293T cells transfected with P1090Q hTRPM3
# Assay type: cell-based
# Set-up: expressed in transfected cells; host or cells: HEK293T
# Experimental: HEK293T cells ([Graham et al., 1977]) were cultured as described previously ([Vriens et al., 2007]) and used up in passage number 14. HEK293T cells were tested for the lack of mycoplasma and transiently transfected with 2 µg of DNA using TransIT transfection reagent (Mirus) 36–48 hr before the measurements. In case of co-cultures a ratio of 1:1 between hTRPM3-YFP WT and mutants-YFP DNA was used.
# All mutants were obtained by the standard PCR overlap extension method using hTRPM3 directly linked to YFP from pCAGGS/IRES-GFP vector ([Vriens et al., 2007]). Accuracy of all mutant sequences was verified by sequencing of the entire DNA constructs.
# Changes in intracellular calcium concentration were monitored using ratiometric Fura-2-based fluorimetry. Cells were loaded with 2 µM Fura-2-acetoxymethyl ester (Alexis Biochemicals) for 30 min at 37°C. Fluorescence was measured during alternating illumination at 340 and 380 nm using Eclipse Ti (Nikon) fluorescence microscopy system, and absolute calcium concentration was calculated from the ratio of the fluorescence signals at these two wavelengths (R = F340/F380) as [Ca^2+]=Km × (R-Rmin)/(Rmax-R), where Km, Rmin and Rmax were estimated from in vitro calibration experiments with known calcium concentrations. The bath solution contained (in mM) 138 NaCl, 5.4 KCl, 2 CaCl2, 2 MgCl2, 10 glucose, and 10 HEPES, pH 7.4. […]
Compound,"Effect on basal [Ca2+]i (primidone 100 µM, isosakuranetin 50 µM)",PS concentration giving robust calcium responses (as low as) [µM]
CCC1(c2ccccc2)C(=O)NCNC1=O [primidone],reduced [Ca^2+]i,–
pregnenolone sulfate [PS],–,1
